Results on 15 compounds are retold here after patent publication US6048862A, “Benzylamidine derivatives with serotonin receptor binding activity” (Virginia Commonwealth University, priority 1999, dated 2000).

Assay [1] addresses 5-HT1Dβ (Homo sapiens, UniProt P28222). Nature of the assay: Binding affinity, 3H-serotonin displacement, membranes of recombinant cells expressing 5-HT1Dβ. As to the method: (§1) Compounds of the previous examples, as well as reference compounds were evaluated for binding affinity using cell types receptive specifically to 5-HT1Dα and 5-HT1Dβ ligands. The assay protocol generally entailed the incubation of membranes prepared from cells expressing the 5-HT1Dα or 5-HT1Dβ subtype of 5-HT receptors with ^3 H-serotonin. Increasing concentrations of the test compound were incubated with the radioligand and the membrane homogenates prepared from the recombinant cells. After a 60 minute incubation at 22° C., the incubation was terminated by vacuum filtration. The filters were washed with buffer and counted for radioactivity using liquid scintillation spectroscopy. The affinity of the test compound for the 5-HT1Dα or 5-HT1Dβ receptor was determined by computer-assisted analysis of the data and by determining the amount of compound necessary to inhibit 50% of the binding of the radioligand to the receptor. Concentrations ranging from 10^-11 M to 10^- 5 M of the test compound were evaluated.

Assay [2] concerns the target 5-HT1Dα (Homo sapiens, UniProt P28221). Nature of the assay: biochemical. In kind it is binding. As to conditions: for 5-HT1Dβ / 5-HT1Dα: ratio of Ki values, selectivity for 5-HT1Dα over 5-HT1Dβ. As to the method:
as §1

Assay [3] has as its target T1, 5-HT1D receptor (Oryctolagus cuniculus, UniProt P49144).
T1 construct: Ring segments of the vein (4-5 mm in length) were cut and the endothelium gently removed; from tissue; host or cells: saphenous vein rings, endothelium removed, male New Zealand White rabbit
Nature of the assay: 5-HT1D receptor agonist assay: contraction of isolated rabbit saphenous vein. Format: cell-based. The protocol:
The saphenous veins from both the left and right side were cleaned of fat and connective tissue and placed in Krebs solution (118 mM NaCl, 11 mM glucose, 25 mM NaHCO3, 4.7 mM KCl, 2.5 mM CaCl2. 2H2 O, 1.2 mM KH2 PO4, and 1.2 mM MgSO4. 7H2 O. Ring segments of the vein (4-5 mm in length) were cut and the endothelium gently removed. The segments were mounted in 10 mL baths containing Krebs buffer and were constantly aerated with 95% oxygen/5% carbon dioxide and maintained at 37° C. and pH 7.4 in order to record the isometric tension. A resting tension of 2.5 g was applied and the tissues allowed to equilibrate for 90 minutes, with washing every 15-20 minutes. After the equilibrium period, the rings were depolarized by the addition of two aliquots of KCl (80 mM final concentration) separated by a 20 minute washing period. The tissues were then exposed to prazosin, idazoxan and indomethacin (all 1 μM final concentration) for 30 minutes in order to exclude the actions of α1 - and α2 -adrenergic receptors and prostaglandin receptors respectively. […] Responses were calculated as a percentage of the maximal contraction evoked by 80 mM KCl. Only one compound was tested per preparation.
EC50 represents the concentration of the compound which causes 50% of the maximum contraction effected by it. If the compound included a maximum contraction of less than 60% of that of KCl (80 mM), it was considered a partial agonist.

Setting [4] is: 3H-serotonin radioligand, 60 minute incubation at 22° C., read-out: 5-HT1Dβ Kl.
Setting [5] is: 3H-serotonin radioligand, 60 minute incubation at 22° C., read-out: 5-HT1Dα Kl.
Setting [6] is: rabbit isolated saphenous vein, prazosin, idazoxan and indomethacin (1 μM) present, 50% of the compound's own maximum contraction, 37° C., pH 7.4, read-out: EC50.

Where a name gives a salt, the structure may show the parent alone. Read-outs that look alike come from different tables or passages of the source. Some results are limits rather than exact numbers.

Sequence of 5-HT1Dβ (P28222 whole entry): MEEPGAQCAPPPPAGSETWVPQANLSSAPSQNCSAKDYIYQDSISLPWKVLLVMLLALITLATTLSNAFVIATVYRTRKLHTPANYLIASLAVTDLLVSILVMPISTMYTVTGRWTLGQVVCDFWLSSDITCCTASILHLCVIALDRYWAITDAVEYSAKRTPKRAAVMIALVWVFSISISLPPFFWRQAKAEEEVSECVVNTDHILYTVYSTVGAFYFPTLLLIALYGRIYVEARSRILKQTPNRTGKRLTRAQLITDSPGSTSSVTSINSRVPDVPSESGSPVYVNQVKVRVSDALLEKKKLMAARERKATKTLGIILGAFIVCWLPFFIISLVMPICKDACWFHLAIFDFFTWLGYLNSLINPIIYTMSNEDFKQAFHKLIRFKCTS
Sequence of 5-HT1Dα (P28221 whole entry): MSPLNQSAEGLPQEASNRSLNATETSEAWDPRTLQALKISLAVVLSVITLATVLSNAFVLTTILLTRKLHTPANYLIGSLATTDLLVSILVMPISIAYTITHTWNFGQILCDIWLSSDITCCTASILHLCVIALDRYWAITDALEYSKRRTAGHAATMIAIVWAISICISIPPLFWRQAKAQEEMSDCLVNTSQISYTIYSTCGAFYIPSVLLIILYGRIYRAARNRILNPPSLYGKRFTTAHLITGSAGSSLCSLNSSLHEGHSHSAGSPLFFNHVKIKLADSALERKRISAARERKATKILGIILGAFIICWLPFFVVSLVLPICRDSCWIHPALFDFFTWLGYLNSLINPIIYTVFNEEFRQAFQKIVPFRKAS
T1 sequence (P49144 whole entry): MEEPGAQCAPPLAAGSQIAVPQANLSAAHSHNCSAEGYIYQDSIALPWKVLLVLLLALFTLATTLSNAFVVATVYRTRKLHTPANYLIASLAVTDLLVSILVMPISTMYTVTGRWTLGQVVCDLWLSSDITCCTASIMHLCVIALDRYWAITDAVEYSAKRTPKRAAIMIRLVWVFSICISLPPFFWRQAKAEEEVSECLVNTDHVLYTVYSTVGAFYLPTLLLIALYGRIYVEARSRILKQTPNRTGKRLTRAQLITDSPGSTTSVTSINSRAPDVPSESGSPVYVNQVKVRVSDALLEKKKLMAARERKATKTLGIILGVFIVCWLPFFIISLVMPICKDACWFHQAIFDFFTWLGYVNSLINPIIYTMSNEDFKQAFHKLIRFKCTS

In the case of `Cc1cc(C(C)(C)C)ccc1CC1=NCCN1.Cl` [Example 5k, 2-[(4-t-Butyl-2-methylphenyl)methyl]-4,5-dihydro-1H-imidazole hydrochloride], the results for the Ki in assay [1] (setting [4]) and in assay [2] (setting [5]) were 712 nM and 6.8 nM, respectively. For the same compound, the “5-HT1Dβ / 5-HT1Dα” value in assay [2] came out at 105.

As for `Cc1cc(C(C)(C)C)cc(C)c1CC1=NCCCN1.Cl` [Example 5j, 2-(4-t-Butyl-2,6-dimethylbenzyl)-1,4,5,6-tetrahydropyrimidine hydrochloride], the Ki is over 5000 nM in assay [1] (setting [4]) and 35 nM in assay [2] (setting [5]). Also, the “5-HT1Dβ / 5-HT1Dα” value in assay [2] is recorded as over 143.

Regarding `Cl.c1ccc2cc(CC3=NCCN3)ccc2c1` [Example 5g, 4,5-Dihydro-2-(2-naphthalenylmethyl)-1H-imidazole hydrochloride], in assay [1], the Ki was determined as 1160 nM. Moreover, in assay [2], the Ki was 135 nM and the “5-HT1Dβ / 5-HT1Dα” value is given as 9.

With `Cc1cc(C)c(CC2=NCCN2)c(C)c1` [drawing 23], the EC50 (as a rule, the concentration giving half of the maximal effect) in assay [3] worked out at 100 nM.

Regarding `Cc1cc(C(C)(C)C)c(O)c(C)c1CC1=NCCN1` [oxymetazoline, reference compound], the Ki in assay [1] (setting [4]) was determined as 0.33 nM.

On to `Cc1cc(C(C)(C)C)cc(C)c1CC1=NCCN1Cc1ccccc1.Cl` [Example 5i, 2-[(4-t-Butyl-2,6-dimethylphenyl)methyl]-1-benzyl-4,5-dihydroimidazole hydrochloride], for which the values for the Ki in assay [1] (setting [4]) and in assay [2] (setting [5]) were 1860 nM and 30 nM, respectively. For the same compound, the “5-HT1Dβ / 5-HT1Dα” value in assay [2] was 62.

On to `Cc1cc(C(C)(C)C)cc(C)c1CC1=NCCN1` [Example 5c, 2-[(4-t-Butyl-2,6-dimethylphenyl)methyl]-4,5-dihydro-1H-imidazole hydrochloride], for which the Ki in assay [1] turned out to be 14.9 nM.

As to `CC(C)(C)c1ccc(CC2=NCCN2)cc1` [drawing 22], the EC50 in assay [3] (setting [6]) came out at 2900 nM.

For `Cc1cc(C)c(CC2=NCCN2)c(C)c1.Cl` [Example 5e, 4,5-Dihydro-2-[(2,4,6-trimethylphenyl)methyl]-1H-imidazole hydrochloride], the Ki in assay [1] (setting [4]) came to 3480 nM. Besides, in assay [2], the Ki came to 92 nM and the “5-HT1Dβ / 5-HT1Dα” value was determined as 20.

For `Cc1cc(C(C)(C)C)cc(C)c1CC(=N)N` [Example 6, 4-t-Butyl-2,6-dimethylbenzeneethanimidamide], the Ki worked out at 600 nM in assay [1] (setting [4]) and 13 nM in assay [2] (setting [5]). The “5-HT1Dβ / 5-HT1Dα” value in assay [2] came to 46.

In the case of `Cc1cc(Br)cc(C)c1CC1=NCCN1.Cl` [Example 5d, 2-[(4-Bromo-2,6-dimethylphenyl)methyl]-4,5-dihydro-1H-imidazole hydrochloride], the Ki in assay [1] (setting [4]) worked out at 1570 nM; in assay [2] (setting [5]), 74 nM. The “5-HT1Dβ / 5-HT1Dα” value in assay [2] came to 21.

On to `Cc1cc(C(C)(C)C)cc(C)c1CC(=N)N` [drawing 24], for which, in assay [3] (setting [6]), the EC50 came to 23 nM.

`Cc1cc(C(C)C)cc(C)c1CC1=NCCN1.Cl` [Example 5f, 4,5-Dihydro-2-[(2,6-dimethyl-4-isopropylphenyl)methyl]-1H-imidazole hydrochloride]: in assay [1] (setting [4]), the Ki worked out at 37 nM. Also, in assay [2], the Ki stood at 1.6 nM and the “5-HT1Dβ / 5-HT1Dα” value was 23.

In the case of `CC(C)c1ccc(CC2=NCCN2)cc1.Cl` [Example 5a, 4,5-Dihydro-2-[(4-isopropylphenyl)methyl]-1H-imidazole Hydrochloride], the figures for the Ki in assay [1] (setting [4]) and in assay [2] (setting [5]) were 2780 nM and 340 nM, respectively. The “5-HT1Dβ / 5-HT1Dα” value in assay [2] is 8.

As to `CC(C)(C)c1ccc(CC2=NCCN2)cc1` [Example 5b, 2-[(4-t-Butyphenyl)methyl]-4,5-dihydro-1H-imidazole hydrochloride], the values for the Ki in assay [1] (setting [4]) and in assay [2] (setting [5]) were over 10000 nM and 105 nM, respectively. Besides, in assay [2], the “5-HT1Dβ / 5-HT1Dα” value is over 95.
